Reference: ChEMBL document CHEMBL1159023, “Fistularin 3 and 11-ketofistularin 3. Feline leukemia virus active bromotyrosine metabolites from the marine sponge Aplysina archeri” (J Nat Prod, 1992)

Assays:
[1] = Cytotoxicity against cat CRFK cells assessed as reduction in cell viability after 5 days by MTT assay; assay type: cell-based, Felis catus; conditions: read-out: ID50
[2] = system: Feline leukemia virus; test: Antiviral activity against Feline leukemia virus infected in cat CRFK cells assessed as inhibition of viral replication after 7 days by ELISA; assay type: functional; conditions: 168 h, read-out: ED50 (the source's name)
[3] = Ratio of ID50 for cat CRFK cells to ED50 for Feline leukemia virus

Row | EC50 [2] [µM] | Compound | CC50 at 120 h [1] [µM] | Ratio [3]
1 | 42 | COC1=C(Br)[C@@H](O)[C@]2(C=C1Br)CC(C(=O)NCC(O)c1cc(Br)c(OCC(=O)CNC(=O)C3=NO[C@]4(C=C(Br)C(OC)=C(Br)[C@@H]4O)C3)c(Br)c1)=NO2 (some centres not stated) | > 449 | >11
2 | 22 | COC1=C(Br)[C@@H](O)[C@]2(C=C1Br)CC(C(=O)NCC(O)c1cc(Br)c(OCC(O)CNC(=O)C3=NO[C@]4(C=C(Br)C(OC)=C(Br)[C@@H]4O)C3)c(Br)c1)=NO2 (some centres not stated) [FISTULARIN 3] | > 449 | >20
3 | 15 | Nc1ccn([C@H]2CC[C@@H](CO)O2)c(=O)n1 [ZALCITABINE] | 1990 | 133
4 | 0.1 | Cc1cn([C@H]2C[C@H](N=[N+]=[N-])[C@@H](CO)O2)c(=O)[nH]c1=O [ZIDOVUDINE] | 1520 | 15170
